Residues, ends and D or L forms follow the SMILES beside them. *: point of attachment. Cyclohexanecarbonyl = O=C(C1CCCCC1)*; Cyclopentanecarbonyl = O=C(C1CCCC1)*; Cyclopropanecarbonyl = O=C(C1CC1)*; Isobutyryl = CC(C)C(=O)*; Piv = CC(C)(C)C(=O)*; Propionyl = CCC(=O)*; Bz = O=C(c1ccccc1)* A value given as a limit tells only on which side of the number the result lay.

A short description of this test: In vitro inhibitory activity against E2F-1/Cyclin A was determined using ELISA assay.
For `CC(C)C[C@H](NC(=O)[C@H](CC(=O)O)NC(=O)[C@H](CC(C)C)NC(=O)[C@H](CCCN=C(N)N)NC(=O)[C@H](CCCN=C(N)N)NC(=O)[C@H](CCCCN)NC(=O)[C@@H](NC(=O)[C@@H]1CCCN1)C(C)C)C(=O)O`, it took 0.1 µM to reach half-maximal inhibition (IC50).
The value for `CC(=O)N1CCC[C@H]1C(=O)N[C@H](C(=O)N[C@@H](CCCCN)C(=O)N[C@@H](CCCN=C(N)N)C(=O)N[C@@H](CCCCN)C(=O)N[C@@H](CC(C)C)C(=O)N[C@H](Cc1ccccc1)C(=O)NCC(=O)O)C(C)C` was 0.25 µM; that for `CC(=O)N1CCC[C@H]1C(=O)N[C@H](C(=O)N[C@@H](CCCCN)C(=O)N[C@@H](CCCN=C(N)N)C(=O)N[C@H](CCCCN)C(=O)N[C@@H](CC(C)C)C(=O)N[C@@H](Cc1ccccc1)C(=O)NCC(=O)O)C(C)C` was 5 µM.
On to `CC(=O)N[C@@H](CCCN=C(N)N)C(=O)N[C@@H](CCCCN)C(=O)N[C@@H](CC(C)C)C(=O)N[C@@H](Cc1ccccc1)C(=O)NCC(=O)O`, for which the IC50 was determined as 30 µM.
Next, `CC(=O)N1CCC[C@H]1C(=O)N[C@H](C(=O)N[C@@H](CCCCN)C(=O)N[C@@H](CCCN=C(N)N)C(=O)N[C@@H](CCCCN)C(=O)N[C@@H](CC(C)C)C(=O)N[C@@H](Cc1ccccc1)C(=O)NCC(=O)O)C(C)C`: 0.1 µM; `CC(=O)N1CCC[C@H]1C(=O)N[C@H](C(=O)N[C@@H](CCCCN)C(=O)N[C@H](CCCN=C(N)N)C(=O)N[C@@H](CCCCN)C(=O)N[C@@H](CC(C)C)C(=O)N[C@@H](Cc1ccccc1)C(=O)NCC(=O)O)C(C)C`: 45 µM.
Molecule `CC(=O)N[C@@H](CCCCN)C(=O)N[C@@H](CC(C)C)C(=O)N[C@@H](Cc1ccccc1)C(=O)NCC(=O)O` (Ac-KLFG-OH) showed an IC50 of 45 µM.
The value for `CC(C)C[C@H](NC(=O)[C@H](CCCCN)NC(=O)[C@H](CCCN=C(N)N)NC(=O)[C@H](CCCCN)NC(=O)c1ccccc1)C(=O)N[C@@H](Cc1ccccc1)C(=O)NCC(=O)O` (Bz-KRKLFG-OH) was 1.5 µM; that for `CC(C)C[C@H](NC(=O)[C@H](CCCCN)NC(=O)[C@H](CCCN=C(N)N)NC(=O)[C@H](CCCCN)NC(=O)C1CCCCC1)C(=O)N[C@@H](Cc1ccccc1)C(=O)NCC(=O)O` (Cyclohexanecarbonyl-KRKLFG-OH) was 0.45 µM.
Next, `CC(C)C[C@H](NC(=O)[C@H](CCCCN)NC(=O)[C@H](CCCN=C(N)N)NC(=O)[C@H](CCCCN)NC(=O)C1CCCC1)C(=O)N[C@@H](Cc1ccccc1)C(=O)NCC(=O)O` (Cyclopentanecarbonyl-KRKLFG-OH): 0.35 µM.
Next, `CC(C)C[C@H](NC(=O)[C@H](CCCCN)NC(=O)[C@H](CCCN=C(N)N)NC(=O)[C@H](CCCCN)NC(=O)C1CC1)C(=O)N[C@@H](Cc1ccccc1)C(=O)NCC(=O)O` (Cyclopropanecarbonyl-KRKLFG-OH): 0.15 µM; `CC(C)C[C@H](NC(=O)[C@H](CCCCN)NC(=O)[C@H](CCCN=C(N)N)NC(=O)[C@H](CCCCN)NC(=O)C(C)C)C(=O)N[C@@H](Cc1ccccc1)C(=O)NCC(=O)O` (Isobutyryl-KRKLFG-OH): 0.15 µM; `CC(C)C[C@H](NC(=O)[C@H](CCCCN)NC(=O)[C@H](CCCN=C(N)N)NC(=O)[C@H](CCCCN)NC(=O)C(C)(C)C)C(=O)N[C@@H](Cc1ccccc1)C(=O)NCC(=O)O` (Piv-KRKLFG-OH): 0.15 µM.
In turn, `CCC(=O)N[C@@H](CCCCN)C(=O)N[C@@H](CCCN=C(N)N)C(=O)N[C@@H](CCCCN)C(=O)N[C@@H](CC(C)C)C(=O)N[C@@H](Cc1ccccc1)C(=O)NCC(=O)O` (Propionyl-KRKLFG-OH) yielded an IC50 of 0.45 µM.
The molecule `CC(C)C[C@H](NC(=O)[C@H](CC(N)=O)NC(=O)[C@H](CCCN=C(N)N)NC(=O)C(CS)NC(=O)[C@H](C)NC(=O)C(N)CO)C(=O)N[C@@H](Cc1ccccc1)C(=O)NCC(=O)O` (single isomer, unassigned) showed a half-maximal inhibitory concentration (IC50) of 0.2 µM.
The value for Ac-AKRKLFG-OH was 0.2 µM; that for Ac-KRKLFG-OH was 1 µM.
In turn, H-PAKRKLFG-OH displayed an IC50 of 0.1 µM.
Next, H-PVKARADL-OH: > 100 µM.

Source of the values: ChEMBL document CHEMBL1133952, “Identification of E2F-1/Cyclin A antagonists” (Bioorg Med Chem Lett, 2001).
